Reference: ChEMBL document CHEMBL6103615, “Thymidylate Kinase-Targeted Antimicrobial Peptides via Phage Display: A Novel Strategy against Gram-Negative Bacteria” (J Med Chem, 2025)
pKd: −log10 of the molar value. Converted amounts (≈) assume the structure as drawn. The source made the active and inactive calls. No cut-off for these calls is given here.

Assays:
[1] = system: Escherichia coli; assay: Antibacterial activity against Escherichia coli 078 incubated for 12 to 18 hrs by microbroth dilution method; assay type: functional; conditions: time 12-18 hrs
[2] = system: Staphylococcus aureus; assay: Antibacterial activity against Staphylococcus aureus 25923 incubated for 12 to 18 hrs by microbroth dilution method; assay type: functional; conditions: time 12-18 hrs
[3] = system: Escherichia coli; assay: Induction of resistance development in Escherichia coli K88 at sub-MIC measured after 20 passages; assay type: functional, organism-based
[4] = (§1) Binding affinity to 6xHis-tagged recombinant Escherichia coli TMK assessed as dissociation constant by BLI assay
[5] = system: Escherichia coli; assay: as §1
[6] = Toxicity in ICR mouse assessed as hunchback posture at 40 mg/kg, ip measured for 30 to 4 hrs; assay type: organism-based; conditions: in vivo, time 30-4 hrs
[7] = Effect on secondary structure of compound in 50 percent TFE assessed as formation of alpha-helical conformation at 100 uM by CD analysis; assay type: physicochemical
[8] = system: Bacteria; assay: Antibacterial activity against bacterial cells at 1 to 64 uM incubated for 4 hrs in presence of 50 percent serum; assay type: functional, organism-based; conditions: dose 1-64 µM
[9] = Toxicity in ICR mouse assessed as change in serum CREA level at 10 to 40 mg/kg, ip treated for 3 days consecutively; assay type: organism-based; conditions: in vivo, 72 h, dose 10-40 mg/kg, time 3 day
[10] = system: Bacteria; assay: Antibacterial activity against bacterial cells at 1 to 128 uM in presence of NaCl; assay type: functional, organism-based; conditions: dose 1-128 µM
[11] = system: Escherichia coli; assay: Antibacterial activity against Escherichia coli K88 incubated for 12 to 18 hrs by microbroth dilution method; assay type: functional; conditions: time 12-18 hrs
[12] = Antibacterial activity against Salmonella choleraesuis 21493 incubated for 12 to 18 hrs by microbroth dilution method; assay type: functional, Salmonella enterica subsp. enterica serovar Choleraesuis; conditions: Salmonella enterica, time 12-18 hrs
[13] = system: Escherichia coli; assay: Induction of inner membrane permeability in Escherichia coli K88 assessed as increase in ONP level at 2 uM; assay type: functional, organism-based
[14] = Relative hydrophobic moment of compound; assay type: physicochemical
[15] = system: Bacteria; assay: Antibacterial activity against bacterial cells at 100 degreeC at 1 to 64 uM incubated for 60 mins; assay type: functional, organism-based; conditions: dose 1-64 µM
[16] = Toxicity in ICR mouse assessed as change in serum TBIL level at 10 to 40 mg/kg, ip treated for 3 days consecutively; assay type: organism-based; conditions: in vivo, 72 h, dose 10-40 mg/kg, time 3 day
[17] = system: Escherichia coli; assay: Antibacterial activity against Escherichia coli K88 infected in ICR mouse model of peritoneal sepsis assessed as bacterial load reduction in kidney at 20 mg/kg, ip measured after 10 hrs; assay type: functional, organism-based
[18] = system: Escherichia coli; assay: Antibacterial activity against Escherichia coli 1515 incubated for 12 to 18 hrs by microbroth dilution method; assay type: functional; conditions: time 12-18 hrs
[19] = system: Escherichia coli; assay: Induction of outer membrane permeability in Escherichia coli K88 assessed as NPN leakage at 2 uM relative to control; assay type: functional
[20] = Selectivity ratio of MIC for antibacterial activity against Escherichia coli 078 to MIC for antibacterial activity against Escherichia coli K101; assay type: functional
[21] = system: Escherichia coli; assay: Antibacterial activity against Escherichia coli K88 infected in ICR mouse model of peritoneal sepsis assessed as bacterial load reduction in spleen at 20 mg/kg, ip measured after 10 hrs; assay type: functional, organism-based
[22] = system: Escherichia coli; assay: Induction of morphological changes in Escherichia coli K88 assessed as membrane contraction at 2 uM incubated for 1 hr by SEM analysis; assay type: functional, organism-based
[23] = system: Bacteria; assay: Antibacterial activity against bacterial cells at pH 4 to 10; assay type: functional
[24] = Hydrophobicity of compound; assay type: physicochemical
[25] = Selectivity ratio of MIC for antibacterial activity against Enterococcus faecalis 29212 to MIC for antibacterial activity against Escherichia coli K95; assay type: functional
[26] = Selectivity ratio of MIC for antibacterial activity against Pseudomonas aeruginosa 27853 to MIC for antibacterial activity against Escherichia coli K96; assay type: functional
[27] = system: Lactiplantibacillus plantarum; assay: Antibacterial activity against Lactobacillus plantarum 8014 incubated for 12 to 18 hrs by microbroth dilution method; assay type: functional; conditions: time 12-18 hrs
[28] = system: Bacteria; assay: Antibacterial activity against bacterial cells at pH 2 to 12; assay type: functional
[29] = system: Escherichia coli; assay: Inhibition of DNA migration in Escherichia coli K88 at 16 uM incubated for 40 mins by agarose gel electrophoresis.; assay type: functional, organism-based
[30] = Selectivity ratio of MIC for antibacterial activity against Lactobacillus plantarum 8014 to MIC for antibacterial activity against Escherichia coli K90; assay type: functional
[31] = Selectivity ratio of MIC for antibacterial activity against Staphylococcus aureus 25923 to MIC for antibacterial activity against Escherichia coli K93; assay type: functional
[32] = system: Escherichia coli; assay: Induction of morphological changes in Escherichia coli K88 assessed as membrane folding at 2 uM incubated for 1 hr by SEM analysis; assay type: functional, organism-based
[33] = system: Staphylococcus aureus; assay: Antibacterial activity against methicillin-resistant Staphylococcus aureus 43300 incubated for 12 to 18 hrs by microbroth dilution method; assay type: functional; conditions: time 12-18 hrs
[34] = Toxicity in ICR mouse assessed as body weight change at 10 to 40 mg/kg, ip treated for 3 days consecutively; assay type: organism-based; conditions: in vivo, 72 h, dose 10-40 mg/kg, time 3 day
[35] = Toxicity in ICR mouse assessed as change in liver index at 10 to 40 mg/kg, ip treated for 3 days consecutively; assay type: organism-based; conditions: in vivo, 72 h, dose 10-40 mg/kg, time 3 day
[36] = Selectivity ratio of MIC for antibacterial activity against Pseudomonas aeruginosa PAO1 to MIC for antibacterial activity against Escherichia coli K97; assay type: functional
[37] = Toxicity in ICR mouse assessed as change in kidney index at 10 to 40 mg/kg, ip treated for 3 days consecutively; assay type: organism-based; conditions: in vivo, 72 h, dose 10-40 mg/kg, time 3 day
[38] = Selectivity ratio of MIC for antibacterial activity against Staphylococcus aureus 29213 to MIC for antibacterial activity against Escherichia coli K94; assay type: functional
[39] = system: Escherichia coli; assay: Antibacterial activity against Escherichia coli K88 infected in ICR mouse model of peritoneal sepsis assessed as reduction in blood IL-1beta level at 20 mg/kg, ip measured after 10 hrs; assay type: functional, organism-based
[40] = Cytotoxicity against porcine IPEC-J2 cells assessed as cell viability at 128 uM incubated for 4 hrs by MTT assay relative to control; assay type: toxicity, cell-based, Sus scrofa; conditions: pig, read-out: Activity
[41] = Toxicity in ICR mouse assessed as change in serum BUN level at 10 to 40 mg/kg, ip treated for 3 days consecutively; assay type: organism-based; conditions: in vivo, 72 h, dose 10-40 mg/kg, time 3 day
[42] = system: Pseudomonas aeruginosa; assay: Antibacterial activity against Pseudomonas aeruginosa 27853 incubated for 12 to 18 hrs by microbroth dilution method; assay type: functional; conditions: time 12-18 hrs
[43] = Selectivity ratio of MIC for antibacterial activity against Escherichia coli 1515 to MIC for antibacterial activity against Escherichia coli K100; assay type: functional
[44] = system: Escherichia coli; assay: Induction of morphological changes in Escherichia coli K88 assessed as cytoplasmic leakage at 2 uM incubated for 1 hr by TEM analysis; assay type: functional, organism-based
[45] = Cytotoxicity against mouse RAW264.7 cells assessed as cell viability at 128 uM incubated for 4 hrs by MTT assay relative to control; assay type: toxicity, cell-based; conditions: read-out: Activity
[46] = system: Escherichia coli; assay: Antibacterial activity against Escherichia coli K88 infected in ICR mouse model of peritoneal sepsis assessed as reduction in blood HMGB1 level at 20 mg/kg, ip measured after 10 hrs; assay type: functional, organism-based
[47] = system: Escherichia coli; assay: Antibacterial activity against Escherichia coli K88 infected in ICR mouse model of peritoneal sepsis assessed as reduction in blood TNF-alpha level at 20 mg/kg, ip measured after 10 hrs; assay type: functional, organism-based

CC[C@@H](C)[C@H](NC(=O)CNC(=O)[C@@H]1CCCN1C(=O)[C@H](CCCCN)NC(=O)[C@H](Cc1c[nH]c2ccccc12)NC(=O)[C@@H](NC(=O)[C@H](CCCCN)NC(=O)[C@H](CCCCN)NC(=O)[C@H](Cc1c[nH]c2ccccc12)NC(=O)[C@H](Cc1ccc(O)cc1)NC(=O)[C@H](CCCCN)NC(=O)[C@@H](NC(=O)[C@H](CC(C)C)NC(=O)[C@H](CC(N)=O)NC(=O)CNC(=O)[C@@H](N)CO)[C@@H](C)O)[C@@H](C)CC)C(=O)N[C@@H](CCCCN)C(=O)N[C@@H](CCCCN)C(=O)N[C@@H](Cc1c[nH]c2ccccc12)C(=O)N[C@H](C(=O)N[C@@H](CCCCN)C(=O)O)[C@H](C)CC
MIC [1]: 8 µM (≈ 20.8 µg/mL) | MIC [2]: 128 µM (≈ 333 µg/mL) | Activity [3]: inactive | pKd [4]: 5.33 | Activity [5]: Dose-dependent-effect | Activity [6]: Toxic | Activity [7]: Active | Activity [8]: Active | Activity [9]: Non-toxic | Activity [10]: inactive | MIC [11]: 2 µM (≈ 5.21 µg/mL) | MIC [12]: 8 µM (≈ 20.8 µg/mL) | Activity [13]: Active | Activity [14]: 0.583 | Activity [15]: Active | Activity [16]: Non-toxic | Activity [17]: Active; Activity Comparable To Colistin Treatment | MIC [18]: 4 µM (≈ 10.4 µg/mL) | Activity [19]: ~50% | Ratio [20]: >2 | Activity [21]: Active; Activity Comparable To Colistin Treatment | Activity [22]: Active | MIC [23]: 2 µM (≈ 5.21 µg/mL) | Activity [24]: 0.391 | Ratio [25]: >2 | Ratio [26]: >2 | MIC [27]: 128 µM (≈ 333 µg/mL) | MIC [28]: 2 µM (≈ 5.21 µg/mL) | inhibition [29]: Active | Ratio [30]: >2 | Ratio [31]: >2 | Activity [32]: Active | MIC [33]: 128 µM (≈ 333 µg/mL) | Activity [34]: Non-toxic | Activity [35]: Non-toxic | Ratio [36]: >2 | Activity [37]: Non-toxic | Ratio [38]: >2 | Activity [39]: Active | viability at 4 h, 128 µM [40]: > 80% | Activity [41]: Non-toxic | MIC [42]: 8 µM (≈ 20.8 µg/mL) | Ratio [43]: >2 | Activity [44]: Active | viability at 4 h, 128 µM [45]: > 80% | Activity [46]: Active | Activity [47]: Active
